Source: paper PMC12385147, “Discovery of Novel 2-Substituted Aniline Pyrimidine Based Derivatives as Potent Mer/c-Met Dual Inhibitors with Improvement Bioavailability” (Biomolecules, 2025)
Like-named read-outs stand apart in the source and are kept apart here.

Assays:
[1] = Liver microsome stability assay; format: in vitro ADME, human
HCT116 = assay: Antiproliferation CCK-8 assay, HCT116; format: cell-based; conditions: for IC50: Homo sapiens, HCT-116
Description: The HepG2, MDA-MB-231, and HCT116 cell lines were derived from our own laboratory (the laboratory of our collaborator, Dr. Xiaolei Zhou, at College of Food Science and Biology in Hebei University of Science and Technology). The antiproliferative activities were assessed using the CCK-8 assay. Cell viability was measured according to the manufacturer’s instructions for the Cell Counting Kit-8 (Meilunbio, Dalian, China). In this assay, 2.5 × 10^3 cells per well were seeded into 96-well plates.
After an initial 12 h incubation, cancer cells were exposed to varying concentrations of compound 17c for 72 h. Following CCK-8 solution addition and 2 h incubation, the absorbance at 450 nm was measured using a BioTek Synergy HTX microplate reader. Experiments included triplicate wells with three independent replicates. The IC50 values for compound 17c were derived from an analysis of the dose–response curves in GraphPad PRISM 9.5.

CAKI-1 renal cancer = assay: Antiproliferation CCK-8 assay, CAKI-1; format: cell-based
[2] = Plasma protein binding, equilibrium dialysis, human plasma; format: in vitro ADME; conditions: for fraction unbound at 6 h, 1 μM: human, plasma
[3] = Plasma protein binding, equilibrium dialysis, rat plasma; format: in vitro ADME
[4] = Pharmacokinetics in SD rats; format: in vivo; conditions: rat; for MRT inf: read-out: MRTINF_obs
Description: Male and female SD rats (SLRC Laboratory Animal Inc., Shanghai, China) were used for the study. In the oral (PO) administration, 3 rats per group were given a single 10 mg/kg dose. Blood samples (100 μL per time point) were collected via jugular vein cannula and taken at 5, 15, and 30 min, and 1, 2, 4, 8, and 24 h post-dose. For the intravenous (IV) administration, 3 rats per group received 2.0 mg/kg, and blood samples were collected at 5, 15, and 30 min, and 1, 2, and 4 h after dosing. Rats were fasted overnight prior to dosing and remained fasted for 6 h post-dose. Plasma was separated by centrifugation and stored at –40 °C until analysis. Compound concentrations were determined by LC/MS/MS (Shimadzu LC-30AD), and pharmacokinetic parameters, including Cmax, Tmax, T1/2, and AUC0-inf, were calculated.

HCT116 cells = assay: TUNEL apoptosis assay in HCT116 cells; format: cell-based; conditions: 48 h
Description: Apoptosis was analyzed in a dose-dependent manner using the One Step TUNEL Apoptosis Assay Kit (Meilunbio, Dalian, China). HCT116 cells (1.5 × 10^4 cells/well) were seeded onto TC-treated glass coverslips in 24-well plates and incubated for 24 h. Following this, the cells were exposed to varying concentrations of compound 17c for 48 h. After treatment, the cells were fixed with 4% paraformaldehyde and permeabilized with 0.3% Triton-X-100. TUNEL staining was performed as per the manufacturer’s guidelines, with DAPI used for nuclear counterstaining. Fluorescent images were obtained using an Olympus microscope. The ED50 value for compound 17c was calculated using GraphPad PRISM 9.5. Each assay was performed in triplicate and repeated three times for consistency.

[5] = system: c-Met kinase phosphorylation; assay: Western blot, c-Met phosphorylation in HCT116 cells; format: cell-based, human; conditions: 2.5 μM, 24 h, compared to the positive control
Description: Western blot assay was performed according to established protocols. HCT colon cancer cells were exposed to the specified concentration of compound 17c for 24 h, after which whole cell lysates were prepared using RAPI cell lysis buffer (Beyotime Institute of Biotechnology, Shanghai, China). Primary antibodies, purchased from Beyotime Institute of Biotechnology, were diluted at a ratio of 1:2000. The protein bands on polyvinylidene fluoride membranes were visualized and analyzed using Glyco Band-Scan Software Version 4.50. The antibody details are as follows:
Name: Phospho-c-Met (Tyr1234) antibody, Species: Rabit, Sequence: synthesized peptide derived from human c-Met around the Phosphorylation site of Tyr1234, Dilution: 1:2000, RRID number: AB_2834564, Catalogue number: AF3129, Supplier: Affinity Biosciences (Beijing, China).

[6] = both sexes, plasma, iv, SD rats, 2 mg/kg
[7] = both sexes, plasma, po, SD rats, 10 mg/kg

## Cc1c(C(=O)Nc2ccc(Oc3ccnc(Nc4cccc(OC5CCN(C)CC5)c4)n3)cc2)c(=O)n(-c2ccccc2)n1C [compound 17c, 1,5-dimethyl-N-(4-((2-((3-((1-methylpiperidin-4-yl)oxy)phenyl)amino)pyrimidin-4-yl)oxy)phenyl)-3-oxo-2-phenyl-2,3-dihydro-1H-pyrazole-4-carboxamide]
[1]; human liver microsomes
  CL (intrinsic clearance): 23.6 µL/min/mg
[1]; human, liver microsomes, pH 7.4, human liver microsomes, read-out: CL (intrinsic clearance)
  microsomal CLint: 26 µL/min/mg
HCT116; HCT116 cells
  fold improvement over cabozantinib: 17.1 fold
HCT116; CCK-8, 72 h, read-out: IC50 HCT116
  IC50: 3790 ± 1090 nM
HCT116; CCK-8, read-out: IC50 HCT116 cells
  IC50: 460 ± 60 nM
CAKI-1 renal cancer; CAKI-1 cells
  fold enhancement compared to cabozantinib: 2.0 fold
CAKI-1 renal cancer; Homo sapiens, CAKI-1, CCK-8, read-out: IC50 CAKI-1 cells
  IC50: 2310 ± 670 nM
[2]; human plasma, 1 μM, 6 h at 37 °C
  Stability (%): 99.3%
[2]; human plasma, 1 μM, fraction, read-out: Mean Fu
  fraction unbound at 6 h, 1 μM: 0.0158
[2]; human plasma, 1 μM, read-out: Mean Fb (PPB) (converted)
  fraction unbound at 6 h, 1 μM: 0.016
[2]; species not stated (abstract)
  plasma protein-binding affinity: > 95%
[3]; 1 μM
  Mean Fb: 98.2%
[3]; 1 μM, 6 h at 37 °C
  Stability (%): 102.2%
[3]; fraction, read-out: Mean Fu
  fraction unbound at 6 h, 1 μM: 0.0178
[4]; [6]
  AUC(0-t): 2150 ng·h/mL
  half-life: 3.33 h
[4]; both sexes, plasma, iv, SD rats, i.v., 2 mg/kg, read-out: CL_obs
  clearance: 16.4 mL/min/kg
[4]; both sexes, plasma, iv, SD rats, i.v., 2 mg/kg
  MRT inf: 3.23 h
[4]; both sexes, plasma, oral, SD rats, p.o. 10 mg/kg vs i.v. 2 mg/kg, read-out: F (oral bioavailability)
  bioavailability: 45.3%
[4]; [7]
  AUC(0-t): 4630 ng·h/mL
  Cmax: 740 ng/mL
  Tmax: 4 h
  half-life: 3.46 h
[4]; both sexes, plasma, po, SD rats, p.o., 10 mg/kg
  MRT inf: 6.52 h
[4]; in vivo, po
  oral bioavailability, fold higher than 18c: 16 fold
HCT116 cells
  ED50 apoptosis (TUNEL-positive cells): 2036 nM
[5]
  inhibition of c-Met kinase phosphorylation: significantly inhibited the phosphorylation
